In assay [1] the target is T1, Human CD73 (amino acid residues 27-549) (Homo sapiens, UniProt P21589).
T1 construct: Human CD73 (amino acid residues 27-549); His tag (N); made in house; host or cells: E. coli
T1 sequence (P21589 27-549): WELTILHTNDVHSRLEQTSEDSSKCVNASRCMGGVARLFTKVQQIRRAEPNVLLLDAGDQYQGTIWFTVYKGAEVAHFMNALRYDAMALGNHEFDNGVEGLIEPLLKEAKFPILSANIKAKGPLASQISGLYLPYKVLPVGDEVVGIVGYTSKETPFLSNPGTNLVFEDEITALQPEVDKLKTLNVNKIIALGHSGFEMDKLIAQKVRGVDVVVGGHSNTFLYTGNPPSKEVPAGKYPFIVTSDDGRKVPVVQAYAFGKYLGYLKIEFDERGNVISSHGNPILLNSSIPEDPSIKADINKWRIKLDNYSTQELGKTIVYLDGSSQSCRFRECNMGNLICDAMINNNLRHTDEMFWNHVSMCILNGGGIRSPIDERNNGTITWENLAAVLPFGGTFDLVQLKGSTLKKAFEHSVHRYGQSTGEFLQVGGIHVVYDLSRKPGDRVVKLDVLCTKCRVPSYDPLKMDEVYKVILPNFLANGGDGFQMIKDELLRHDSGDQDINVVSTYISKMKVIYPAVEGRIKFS
As to the kind of experiment: CD73 enzymatic assay (luciferase-based indirect assay, CellTiter-Glo). The class given is biochemical. To be noted: 0.4 nM CD73, 150 μM AMP, 1 hour at room temperature. In a few lines: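 His-tagged human CD73 (27-549) from E. coli, 0.4 nM, with 150 μM AMP in 50 mM HEPES pH 7.4, 0.01% Tween 20; 1 h at room temperature. AMP remaining read by CellTiter-Glo 2.0 luminescence with 1 μM final ATP after 30 min. IC50 from nonlinear regression of % inhibition.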
For orientation: ATP-based viability assays read luminescence as a measure of living cells.

Another assay has as its target T2, human CD73 (Homo sapiens, UniProt P21589).
T2 construct: expressed in transfected cells
T2 sequence (P21589 27-549): T1 sequence (P21589 27-549)
As to the kind of experiment: Inhibitor activity against CD73 in cell based assay (CD73 expressing CHO-K1 cells). To be noted: CHO-K1 cells expressing human CD73, 150 μM AMP, 4 hours of incubation; read-out: CHO-K1 CELL VARIANT: CD73 IC50. How it is done: Determine Inhibitor Activity Against CD73 in Cell Based Assay
CD73 expressing CHO-K1 cell clones were generated upon stable transfection of a plasmid expressing human CD73 under the control of CMV promoter. Cells were selected in Ham's F-12K (Kaighn's) media supplemented with 10% fetal bovine serum and 1 mg/ml G418 at 37° C. in a humidified incubator supplied with 5% CO2. The assays were performed as follows. Cells were seeded in a 96 well plate in 50 μL of culture media at a density of 1×10^4 per well. Compound at a maximal concentration of 5 mM was serially diluted 1:3 in DMSO for a total of 8 point titration. A 2 μL aliquot of each dilution point was added to 248 μL culture media and 25 µL was added to each well, providing 10 μM compound at the maximum concentration point. AMP was diluted in culture media and 25 μL was added to each well with a final concentration of 150 μM. 4 wells containing 0.2% DMSO treated cells and AMP served as high controls and 4 wells containing media only with 0.2% DMSO and AMP served as low controls. After 4 hours of incubation, 20 μL of the supernatant was transferred to a 384 well plate. AMP level in supernatant was measured indirectly by adding 5 μL of CellTiter-Glo® 2.0 reagent and 5 μL of ATP with a final concentration of 1 μM. Following incubation of plate at room temperature for 30 minutes, luminescent signal was read on a Tecan plate reader. The percentage inhibition at individual concentrations relative to high and low controls was calculated. The data were analyzed by using nonlinear regression to generate IC50 values.

As usually defined, the IC50 is the point on the concentration scale where inhibition reaches its midpoint. As for `CC(C)(C)OC(=O)N1CCC(NC(=O)N[C@@H]2CCN(c3cn[nH]c(=O)c3Cl)C2)CC1` [P-0051, tert-butyl (R)-4-(3-(1-(5-chloro-6-oxo-1,6-dihydropyridazin-4-yl)pyrrolidin-3-yl)ureido)piperidine-1-carboxylate], the IC50 in assay [1] lay within 0.001 to 10 µM; on human CD73, 10 to 100 µM.
Take `CS(=O)(=O)N1CCC(NC(=O)N[C@@H]2CCN(c3cn[nH]c(=O)c3Cl)C2)C1` (stereo partly drawn) [P-0052, 1-((R)-1-(5-chloro-6-oxo-1,6-dihydropyridazin-4-yl)pyrrolidin-3-yl)-3-(1-(methylsulfonyl)pyrrolidin-3-yl)urea]: the IC50 in assay [1] was in the range of 0.001 to 10 µM; on human CD73, 10 to 100 µM.
Taken in the same sequence, the figures for `O=C(NC1CCS(=O)(=O)C1)N[C@@H]1CCN(c2cn[nH]c(=O)c2Cl)C1` (stereo partly drawn) [P-0054, 1-((R)-1-(5-chloro-6-oxo-1,6-dihydropyridazin-4-yl)pyrrolidin-3-yl)-3-(1,1-dioxidotetrahydrothiophen-3-yl)urea] were 0.001 to 10 µM and 10 to 100 µM.
Taken in the same sequence, the figures for `Cc1c(N2CC[C@@H](NC(=O)OC(C)(C)C)C2)cn[nH]c1=O` [P-0056, tert-butyl (R)-(1-(5-methyl-6-oxo-1,6-dihydropyridazin-4-yl)pyrrolidin-3-yl)carbamate] were 0.001 to 10 µM and 10 to 100 µM.
With `Cc1c(N2CC[C@@H](NC(=O)NC3CCCC3)C2)cn[nH]c1=O` [P-0057, (R)-1-cyclopentyl-3-(1-(5-methyl-6-oxo-1,6-dihydropyridazin-4-yl)pyrrolidin-3-yl)urea], the IC50 fell in the range of 0.001 to 10 µM in assay [1] and 10 to 100 µM at human CD73.
In the case of `Cc1c(N2CC[C@@H](NC(=O)NC3CCCC3)C2)cnn(C(=O)NC2CCCC2)c1=O` [P-0058, (R)-N-cyclopentyl-4-(3-(3-cyclopentylureido)pyrrolidin-1-yl)-5-methyl-6-oxopyridazine-1(6H)-carboxamide], the IC50 in assay [1] was 0.001 to 10 µM; at human CD73, 10 to 100 µM.
For the molecule `Cc1c(N2CC[C@@H](NC(=O)NC3CCCCC3)C2)cn[nH]c1=O` [P-0059, (R)-1-cyclohexyl-3-(1-(5-methyl-6-oxo-1,6-dihydropyridazin-4-yl)pyrrolidin-3-yl)urea], the IC50 lay within 0.001 to 10 µM in assay [1] and 10 to 100 µM at human CD73.
Take `C[C@H]1CN(c2cn[nH]c(=O)c2Cl)C[C@@H]1NC(=O)NC1CCCCC1` [P-0062, 1-((3R,4S)-1-(5-chloro-6-oxo-1,6-dihydropyridazin-4-yl)-4-methylpyrrolidin-3-yl)-3-cyclohexylurea]: the IC50 in assay [1] lay in the range of 0.001 to 10 µM; on human CD73, 10 to 100 µM.
Regarding `C[C@H]1CN(c2cn[nH]c(=O)c2Cl)C[C@@H]1NC(=O)OC1CCCCC1` [P-0063, cyclohexyl ((3R,4S)-1-(5-chloro-6-oxo-1,6-dihydropyridazin-4-yl)-4-methylpyrrolidin-3-yl)carbamate], the IC50 in assay [1] lay within 0.001 to 10 µM; on human CD73, 10 to 100 µM.
Regarding `N#Cc1c(N2CC[C@@H](NC(=O)NC3CCCC3)C2)cn[nH]c1=O` [P-0064, (R)-1-(1-(5-cyano-6-oxo-1,6-dihydropyridazin-4-yl)pyrrolidin-3-yl)-3-cyclopentylurea], the IC50 in assay [1] was in the range of 0.001 to 10 µM; at human CD73, 10 to 100 µM.
Turning to `N#Cc1c(N2CC[C@@H](NC(=O)NC3CCCCC3)C2)cn[nH]c1=O` [P-0065, (R)-1-(1-(5-cyano-6-oxo-1,6-dihydropyridazin-4-yl)pyrrolidin-3-yl)-3-cyclohexylurea], the IC50 (in assay [1]; on human CD73) was 0.001 to 10 µM each time.
`CN(C(=O)OC1CCCCC1)C1CCN(c2cn[nH]c(=O)c2Cl)C1` (centres unmarked) [P-0068, cyclohexyl (1-(5-chloro-6-oxo-1,6-dihydropyridazin-4-yl)pyrrolidin-3-yl)(methyl)carbamate]: the values for the IC50 (in assay [1]; at human CD73) were 0.001 to 10 µM and 10 to 100 µM, respectively.
On the same counts, the results for `N#CC1(NC(=O)OC2CCCCC2)CCN(c2cn[nH]c(=O)c2Cl)C1` (centres unmarked) [P-0074, cyclohexyl (1-(5-chloro-6-oxo-1,6-dihydropyridazin-4-yl)-3-cyanopyrrolidin-3-yl)carbamate] are 0.001 to 10 µM and 10 to 100 µM.

The values are drawn from patent US12509444B2, “Compounds and methods for CD73 modulation and indications therefor” (Plexxikon Inc., priority 2019, dated 2025).
